Substitutions are numbered along the chain they refer to. Marks after values point to notes of the source that are not given here.
Legend:
Assay in all cases: Agonist-induced currents, voltage clamp electrophysiology in Xenopus oocytes
Assay type in all cases: cell-based
[1] = biological target: T1, N128D mutant 5-HT3 receptor (mouse 5-HT3A subunit) (Mus musculus, UniProt P23979, N128D); details: N128D
T1 sequence (P23979 24-483 isoform P23979-2 N128D limits assumed): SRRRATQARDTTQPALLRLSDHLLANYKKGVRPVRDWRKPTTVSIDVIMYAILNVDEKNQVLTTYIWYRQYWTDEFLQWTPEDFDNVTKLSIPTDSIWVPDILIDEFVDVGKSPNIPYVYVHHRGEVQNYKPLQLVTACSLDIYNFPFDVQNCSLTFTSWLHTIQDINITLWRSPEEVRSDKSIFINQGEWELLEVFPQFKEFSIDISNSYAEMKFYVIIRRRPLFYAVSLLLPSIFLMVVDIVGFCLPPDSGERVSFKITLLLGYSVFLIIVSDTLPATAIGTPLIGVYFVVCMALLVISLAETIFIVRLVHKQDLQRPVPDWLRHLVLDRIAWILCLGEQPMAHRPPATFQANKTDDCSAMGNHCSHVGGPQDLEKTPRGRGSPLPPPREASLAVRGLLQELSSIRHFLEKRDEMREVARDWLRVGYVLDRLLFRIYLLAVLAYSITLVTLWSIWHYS

[2] = biological target: T2, E129H mutant 5-HT3 receptor (mouse 5-HT3A subunit) (Mus musculus, UniProt P23979, E129H)
T2 sequence (P23979 24-483 isoform P23979-2 E129H limits assumed): T1 sequence (P23979 24-483 isoform P23979-2 N128D limits assumed) with D105N, E106H

[3] = biological target: T3, N128E mutant 5-HT3 receptor (mouse 5-HT3A subunit) (Mus musculus, UniProt P23979, N128E); details: N128E
T3 sequence (P23979 24-483 isoform P23979-2 N128E limits assumed): T1 sequence (P23979 24-483 isoform P23979-2 N128D limits assumed) with D105E

[4] = biological target: T4, E129D mutant 5-HT3 receptor (mouse 5-HT3A subunit) (Mus musculus, UniProt P23979, E129D); details: E129D
T4 sequence (P23979 24-483 isoform P23979-2 E129D limits assumed): T1 sequence (P23979 24-483 isoform P23979-2 N128D limits assumed) with D105N, E106D

[5] = biological target: T5, N128K mutant 5-HT3 receptor (mouse 5-HT3A subunit) (Mus musculus, UniProt P23979, N128K)
T5 sequence (P23979 24-489 N128K): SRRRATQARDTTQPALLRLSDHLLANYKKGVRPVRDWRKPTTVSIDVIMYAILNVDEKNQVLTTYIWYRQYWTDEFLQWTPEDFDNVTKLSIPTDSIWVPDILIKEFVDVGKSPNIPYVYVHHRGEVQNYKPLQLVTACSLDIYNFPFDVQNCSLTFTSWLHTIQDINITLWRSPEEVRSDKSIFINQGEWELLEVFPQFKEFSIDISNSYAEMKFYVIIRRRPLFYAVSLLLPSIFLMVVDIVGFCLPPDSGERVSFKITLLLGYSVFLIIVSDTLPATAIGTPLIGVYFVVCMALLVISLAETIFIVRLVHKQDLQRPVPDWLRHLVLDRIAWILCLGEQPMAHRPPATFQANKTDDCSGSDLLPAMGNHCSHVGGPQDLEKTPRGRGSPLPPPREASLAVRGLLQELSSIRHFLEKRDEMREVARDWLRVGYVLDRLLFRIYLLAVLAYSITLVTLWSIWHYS

| SMILES | EC50 [1] | nH (Hill coefficient) [1] | pEC50 ([1]; SR = small (<100 nA) responses) | EC50 [2] | nH (Hill coefficient) [2] | pEC50 [2] | EC50 [3] | nH (Hill coefficient) [3] | pEC50 [3] | EC50 [4] | nH (Hill coefficient) [4] | size of agonist response (current) [4] | pEC50 ([4]; SR = small (<100 nA) responses) | EC50 [5] | nH (Hill coefficient) [5] | pEC50 [5] |
| --- | --- | --- | --- | --- | --- | --- | --- | --- | --- | --- | --- | --- | --- | --- | --- | --- |
| N=C(N)NC(=N)Nc1cccc(Cl)c1 [mCPBG, m-chlorophenylbiguanide] | 270 nM | 1.54 ± 0.15 | 6.56 ± 0.03 | 370 nM | 1.63 ± 0.20 | 6.43 ± 0.04 | 280 nM | 1.81 ± 0.019 | 6.56 ± 0.03 | 250 nM | 1.19 ± 0.31 | > 5 µA | 6.60 ± 0.10 | 3900 nM | 1.43 ± 0.16 | 5.41 ± 0.03 ^b |
| NCCc1c[nH]c2ccc(O)cc12 [5-HT, 5-hydroxytryptamine] |  | 1.63 ± 0.08 ^b |  |  | 1.07 ± 0.24 ^b |  |  | 1.48 ± 0.18 ^b |  |  | 1.81 ± 0.16 ^b | > 5 µA |  |  | 2.13 ± 0.38 |  |
